From patent US20140256663A1, “Amphotericin Analogous Compounds and Pharmaceutical Compositions Containing Them” (CENTRO DE INVESTIGACION Y DE ESTUDIOS AVANZADOS DEL …, priority 2010, published 2014)

Tests used:
Candida kruzei = assay: Antifungal activity in vitro by flow cytometry, Candida kruzei; type: cell-based; conditions: 24 h at 37° C., read-out: CF50 Candida kruzei
Description: (§1) The antifungal activity of the polyene macrolide derivate of the present invention was determined by flow cytometry method earlier described (Pinto et al., J. Medical Microbiology, 2009; 58, 1454-1462; Pina-Vaz and Rodriguez, Methods Mol. Biol. 2010; 638:281-289). For the test two strains of Candida albicans (ATCC 10231 and 752) and Candida kruzei were used. A cellular suspension of 1×10^6 UFC/mL was used, which has sown in 96-well plates. […] As controls were used: untreated yeasts (control of living cells), yeasts exposed to UV radiation (arrest, inhibition of proliferation), and yeasts exposed at temperature of 100° C. (dead yeasts). Cells were collected by centrifugation at 10,000×g for 10 min, they were washed once in phosphate buffer. […] of propidium iodide 0.1 mg/mL were added to the cell suspension. It was incubated during 30 minutes at room temperature and protected from light. Finally, the samples were analyzed by flow cytometry (Becton-Dickinson Facsc Calibur, laser argon 480 nm). The intrinsic parameters and fluorescence in the FL2 channel (yellow/orange fluorescence) for FUN and channel FL3 (red fluorescence, filter 630 nm) for propidium iodide were acquired and registered on a logarithmic scale for a minimum of 7500 events per sample. For data analysis, the quadrants were adjusted in a plot of data lines of fluorescence intensity of samples. […] These quadrants were used to quantify the percentile of cells showing altered fluorescence compared to drug-free controls.

[1] = tested on: Candida albicans ATCC 752; assay: Antifungal activity in vitro by flow cytometry, Candida albicans ATCC 752; type: cell-based; conditions: ATCC752, 24 h at 37° C., read-out: CF50 Candida albicans ATCC 752
Description: as §1

[2] = tested on: human renal cells 293Q (ATCC CLR-1573); assay: MTT cytotoxicity on human renal cells 293Q
Description: For cytotoxicity studies human kidney cells (ATCC No. CRL-1573) were used. The cells were cultured with Minimum Essential Medium (MEM) (GIBCO BRL), supplemented with 10% fetal bovine serum (FBS) (GIBCO BRL), 2 mM 1-glutamine (GIBCO BRL), 1.5 gL Na2HCO3 (Sigma Chemical Co), 0.1 mM nonessential amino acids (Sigma Chemical Co), and 1 mM sodium pyruvate (In vitro, S.A.). The technique of bromide of 3(4,5-dimethylthiazol-2-yl)-2,5-diphenyl tetrazolium (MTT) (Sigma Chemical Co) was applied; a technique which is based on the conversion of dye to an insoluble precipitate called formazan. This test is used as an indicator of mitochondrial function in living cells that measures the metabolic capacity in cells and serves as an indicator of cytotoxicity. […] (Mosman […], Immunol Methods, 65: 55-63). The cytoxicity test consisted of planting 10,000 cells per well in 96-well plates (Corning Incorporated Costar) in MEM and incubate them (Nuaire us autoflow CO2 water-jacketed incubator) during 24 h at 37° C. and 5% CO2. […] After incubation, cells were treated and incubated anew for 24 h. After this time the medium was aspirated carefully and replaced with 200 μL of fresh medium, and 50 μL of MTT was added for a total volume of 250 μl. They were then incubated for 4 hours in the above conditions. After that time the medium with MTT was carefully removed and 200 μL of DMSO and 25 μL of Sorensen buffer (0.1 M glycine+0.1 M NaCl at pH 10.5) were added to each well. The plate was then mixed until the formazan crystals dissolved, and it was finally read in a plate reader (Microplate Limaning System Ultramark, Biorad) at a wavelength of 550 nm.
For the tests, we used human renal ephythelial cells (293Q) (ATCC Catalog No. CRL-1573). The cells were cultured with Minimum Essential Medium (MEM) (GIBCO BRL) supplemented with 10% fetal bovine serum (FBS) (GIBCO BRL), 2 mM L-glutamine (GIBCO BRL), 1.5 g/L Na2HCO3 (Sigma Chemical Co), 0.1 mM nonessential amino acids (Sigma Chemical Co), and 1 mM sodium pyruvate (In vitro, S.A.). For cytoxicity tests, we applied the technique of bromide 3(4,5-dimethylthiazol-2-yl)-2,5-diphenyl tetrazolium (MTT) (Sigma Chemical Co), which is based on the conversion of the dye to an insoluble precipitate called formazan. This test is used as an indicator of mitochondrial function in living cells which measures the metabolic capacity in cells and serves as an indicator of cytotoxicity. (Wang, H. Z., Chang, C. H., Lin, C. P., Tsai, M. C). Using MTT viability assay to test the cytotoxicity of antibiotics and steroid to cultured porcine corneal endothelial cells. J. Ocul. Pharmacol. Ther. 1996; 12: 35-43). For the essay 10,000 cells were seeded per well in 96-well plates (Corning Incorporated Costar) in the medium already indicated and incubated for 24 h at 37° C. and 5% CO2. […] After incubation, cells were treated and incubated again for 24 h. The medium was carefully aspirated and replaced with 200 μl fresh medium, adding 50 μl MTT solution for a total volume of 250 μl. They were then incubated for 4 hours in the above conditions. The medium was carefully removed with MTT and 200 μl DMSO and 25 μl Sorense buffer (0.1 M glycine+0.1 M NaCl at pH 10.5) was added to each well. Then the plate was mixed until the formazan crystals dissolved; it was finally read in a reader plate (Microplate Limaning System Ultramark, Biorad) at a wavelength of 550 nm.

[3] = Unit channel studies in chicken egg lecithin bilayers with cholesterol
Description: The activity is determined by the presence of the different channels formed by polyenes in the lipid bilayer (Cotero, et al., supra; Venegas, et al., supra). […] These values were determined by the technique of unit channel delineated above.
Unit channel studies were performed according to procedures described earlier (Cotero, et al., supra, Venegas, et al., supra). Required liposomal suspensions were prepared using lecithin with cholesterol or ergosterol. These suspensions were placed in an ultrasonic bath for 15 minutes to produce unilamellar vesicles. Subsequently, the suspension was placed in a 100 μl eppendorf and a lipid bilayer was formed on the tip of a micro-electrode. The unit channels of amphotericin and of the invented compounds were incorporated to this bilayer. The unit channel current of the various compounds was recorded with an electrometer, and then these records were analyzed by determining the activity of the compounds and the characteristics of the channels formed.
The activity is determined by the presence of the various channels formed by polyenes in the lipid bilayer (Cotero, et al., supra, Venegas, et al., supra). […] This conductance is the effect of all the channels present and was determined by the unit channel technique earlier described.

[4] = tested on: Saccharomyces cerevisae FY833(SC) cells; assay: Viability of Saccharomyces cerevisae FY833 (SC) cells at various concentrations; type: cell-based; conditions: FIG. 1, various concentrations
Description: All derivatives were tested for antibiotic activity in yeast cultures of S. cerevisiae.

human erythrocytes = assay: Hemolytic assay on human erythrocytes; type: cell-based; conditions: 1 hour
Description: The hemotoxicity of the polyene macrolide derivative of the present invention was determined by measuring the toxicity to human erythrocytes (values HE50) using a method established by Cybulska, et al. (Cybulska, B., Borowski, E. and Gary-Bobo, M. Relationship between ionophoric and hemolytic activities of perimycin A and vacidin A, two polyene macrolide antifungal antibiotics. Biochem Pharmacol. 1989; 38(11): 1755-1762). For determining the haematoxicity 2 mL blood were obtained and placed in a tube with EDTA. The number of erythrocytes was counted in a Neubauer chamber, and 1×10^7 cells/mL were placed in test tubes. The erythrocytes were resuspended in 450 μL of KCl 150 mM+Tris 3 mM buffer. The erythrocytes were treated with concentrations of 0.01, 0.1, 1, 10 y 100 μM and incubated in a water bath for 1 hour. They were then centrifuged at 1500 rpm for 15 seconds; 150 μL were taken from the supernatant and placed in 96-well plates; the optical density of each group was measured using a plate reader at a wavelength of 550 nm. We included one tube with the drug solvent (DMSO 1%) as internal control. We also included one tube only with erythrocytes and 500 μl of buffer KCl 150 mM+Tris 3 mM, which we consider as a negative control group and a tube with 500 μl of red cells and 35 mM NaCl (positive control).

[5] = tested on: Candida albicans ATCC 10231; assay: Antifungal activity in vitro by flow cytometry, Candida albicans ATCC 10231; type: cell-based; conditions: ATCC10231, 24 h at 37° C., read-out: CF50 Candida albicans ATCC 10231
Description: as §1

[6] = Recarrier K. thesis; cited from earlier work
[7] = 200 μM compound, 30 mol % cholesterol, 27° C.

SMILES | IC50 (Candida kruzei) [µM] | IC50 [1] [µM] | collateral cytotoxicity on human renal cells 293Q compared to AmB ([2]; FIG. 2, FIG. 8) | DT50 CitE50 ([2]; human renal cells 293Q, 24 h) [µM] | Opening probability, channel type I [3, 7] [%] | Opening probability, channel type II [3, 7] | Opening probability, channel type III [3, 7] | Opening probability, channel type IV [3, 7] | Opening probability, channel type V [3, 7] | Opening probability, channel type VI [3, 7] | activity of transmembranal channels in the cholesterol membrane ([3]; in words, compared to AmB) | inhibitory capacity / potency on SC cells compared to AmB [4] | HE50 (Hemolysis 50) (human erythrocytes) [µM] | IC50 [5] [µM] | selectivity ergosterol versus cholesterol POPC membranes [6]
CC1OC(O[C@H]2/C=C/C=C/C=C/C=C/C=C/C=C/C=C/C(C)[C@@H](O)C(C)C(C)OC(=O)C[C@H](O)C[C@H](O)CC[C@@H](O)[C@H](O)C[C@H](O)C[C@]3(O)CC(O)[C@@H](C(=O)N(C(C)C)C(C)C)C(C2)O3)C(O)C(N)C1O (stereo partly drawn) [A-3, N-diisopropylamide of AmB] | > 100 | > 100 | low cytoxicity | 180 | <1 | N.O. | N.O. | N.O. | N.O. | N.O. | more reduced presence of channels in membranes with cholesterol | low potency in fungal cells | 53 | > 50 | 
C[C@@H]1[C@H](O)[C@@H](C)/C=C/C=C/CC/C=C/C=C/C=C/C=C/C(O[C@H]2O[C@H](C)[C@@H](O)[C@H](N)[C@@H]2O)CC2O[C@](O)(CC(O)C(O)CCC(O)CC(O)CC(O)CC(=O)O[C@H]1C)CC(O)C2C(=O)O (stereo partly drawn) [nystatin] |  |  |  |  |  |  |  |  |  |  |  |  |  |  | much higher selectivity
